Literature values as cited in patent publication US11980686B1, “Agomelatine oral transmucosal film” (Xiamen LP Pharmaceutical Co., Ltd., priority 2023, dated 2024).

Settings: oral tablet

Inter-individual variation (AUC): 104%
Intra-subject variation (AUC): 157%
Compound: COc1ccc2cccc(CCNC(C)=O)c2c1 [agomelatine, Agomelatine]
